In patent publication US10988477B2 (Merck Patent GmbH, priority 2018, dated 2021):
Like-named read-outs stand apart in the source and are kept apart here.

How the values were obtained:
[1] = target: GCN2 kinase (Homo sapiens, UniProt Q9P2K8); assay: GCN2 enzyme inhibition assay (Transcreener ADP2 fluorescence polarization); type: biochemical; settings: 280 μM ATP
How it was run: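 ADP formation read by Transcreener FP after a 1 h, 25 °C kinase reaction containing 280 μM ATP, 200 μM (RS)7 substrate and 4 nM GCN2, pH 7.5 Tris buffer. Compounds (0–8 μM final) were added 10 min before ATP. Percent inhibition gave IC50 and apparent Ki via tight-binding fit.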

[2] = target: intracellular GCN2 (phosphorylation of the GCN2 substrate eIF2α) (Homo sapiens, UniProt Q9P2K8); assay: GCN2 cellular inhibition assay (AlphaScreen SureFire P-eIF2α Ser51, borrelidin-treated U2OS cells); type: cell-based
intracellular GCN2 (phosphorylation of the GCN2 substrate eIF2α), sequence (Q9P2K8 whole entry): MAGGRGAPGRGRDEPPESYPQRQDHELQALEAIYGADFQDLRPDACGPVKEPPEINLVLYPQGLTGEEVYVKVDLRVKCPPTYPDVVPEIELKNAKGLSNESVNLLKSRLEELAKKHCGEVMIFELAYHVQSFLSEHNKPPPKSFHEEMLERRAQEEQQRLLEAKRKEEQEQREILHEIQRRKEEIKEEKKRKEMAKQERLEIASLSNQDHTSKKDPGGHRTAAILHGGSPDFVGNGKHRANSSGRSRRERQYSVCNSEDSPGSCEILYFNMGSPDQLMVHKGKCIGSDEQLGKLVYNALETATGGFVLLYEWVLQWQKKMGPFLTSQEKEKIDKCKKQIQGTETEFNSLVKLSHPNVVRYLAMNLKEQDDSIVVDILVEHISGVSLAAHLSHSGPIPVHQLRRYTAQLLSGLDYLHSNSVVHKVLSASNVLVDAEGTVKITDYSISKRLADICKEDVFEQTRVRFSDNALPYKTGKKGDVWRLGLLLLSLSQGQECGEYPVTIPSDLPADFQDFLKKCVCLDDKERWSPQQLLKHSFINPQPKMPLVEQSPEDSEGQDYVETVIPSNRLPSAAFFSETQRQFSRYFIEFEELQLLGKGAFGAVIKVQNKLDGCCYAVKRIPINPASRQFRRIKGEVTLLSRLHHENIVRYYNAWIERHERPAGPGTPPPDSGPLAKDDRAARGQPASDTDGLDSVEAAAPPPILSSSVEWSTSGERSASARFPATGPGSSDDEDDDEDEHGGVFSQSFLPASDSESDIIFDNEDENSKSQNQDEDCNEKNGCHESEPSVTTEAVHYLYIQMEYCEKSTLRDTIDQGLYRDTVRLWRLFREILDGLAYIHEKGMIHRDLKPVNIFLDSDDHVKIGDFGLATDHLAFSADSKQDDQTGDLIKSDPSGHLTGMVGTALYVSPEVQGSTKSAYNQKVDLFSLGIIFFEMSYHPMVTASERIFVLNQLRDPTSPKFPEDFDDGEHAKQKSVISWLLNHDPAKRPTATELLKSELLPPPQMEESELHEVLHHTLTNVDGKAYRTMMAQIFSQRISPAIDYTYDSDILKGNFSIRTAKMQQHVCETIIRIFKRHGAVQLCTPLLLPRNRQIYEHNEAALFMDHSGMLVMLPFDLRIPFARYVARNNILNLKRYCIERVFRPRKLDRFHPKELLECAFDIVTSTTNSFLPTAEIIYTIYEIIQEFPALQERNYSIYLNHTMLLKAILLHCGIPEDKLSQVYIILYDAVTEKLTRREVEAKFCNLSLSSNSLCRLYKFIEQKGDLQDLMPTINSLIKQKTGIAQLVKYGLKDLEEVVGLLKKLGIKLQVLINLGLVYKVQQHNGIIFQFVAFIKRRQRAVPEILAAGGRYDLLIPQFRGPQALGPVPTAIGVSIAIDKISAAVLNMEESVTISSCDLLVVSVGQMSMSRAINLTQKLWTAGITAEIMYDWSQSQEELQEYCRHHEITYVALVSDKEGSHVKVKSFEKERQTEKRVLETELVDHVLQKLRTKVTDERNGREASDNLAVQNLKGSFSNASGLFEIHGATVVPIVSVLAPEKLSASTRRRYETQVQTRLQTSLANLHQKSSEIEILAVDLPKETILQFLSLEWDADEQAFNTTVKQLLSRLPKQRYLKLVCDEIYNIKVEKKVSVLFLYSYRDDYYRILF
How it was run: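 Read-out: AlphaScreen SureFire phospho-eIF2α (Ser51) signal in U2OS lysates. Cells get 4-fold compound dilutions (top 40 μM final) plus 10 μM borrelidin, 1 h, 37 °C. Percent inhibition is relative to borrelidin-alone controls.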

[3] = compounds of Formula II, 4 nM GCN2 kinase
[4] = compounds of Formula II, biomarker assay, phosphorylated eIF2α Ser51 in borrelidin-treated U2OS cells
[5] = compounds of Formula IV, biomarker assay, phosphorylated eIF2α Ser51 in borrelidin-treated U2OS cells
[6] = Enzyme activity for compounds of Formula IV, Ki(app), 25° C.

GCN2 kinase, sequence (Q9P2K8 whole entry): as above

SMILES | Ki [1, 3] | IC50 [2, 4] | IC50 [2, 5] | further results
NS(=O)(=O)N1CC2(CN(c3cc(-c4cnc5ccc(C(F)F)nn45)ncn3)CCO2)C1 [II-334, 8-(6-(6-(Difluoromethyl)imidazo[1,2-b]pyridazin-3-yl)pyrimidin-4-yl)-5-oxa-2,8-diazaspiro[3.5]nonane-2-sulfonamide] | 10 to 1000 nM | 500 to 5000 nM |  | 
CC1CC(CNS(C)(=O)=O)C(C)N(c2cc(-c3cnc4ccc(C(F)F)nn34)ncn2)C1 (stereo not drawn) [II-511, N-((1-(6-(6-(Difluoromethyl)imidazo[1,2-b]pyridazin-3-yl)pyrimidin-4-yl)-2,5-dimethylpiperidin-3-yl)methyl)methanesulfonamide] | < 10 nM | < 500 nM |  | 
CC1(NS(C)(=O)=O)CCCN(c2cc(-c3cnc4ccc(C(F)F)nn34)ncn2)C1 (stereo not drawn) [II-445, N-(1-(6-(6-(Difluoromethyl)imidazo[1,2-b]pyridazin-3-yl)pyrimidin-4-yl)-3-methylpiperidin-3-yl)methanesulfonamide] | 10 to 1000 nM | > 5000 nM |  | 
C[C@@H]1C[C@H](N=S(C)(C)=O)CN(c2ccnc(-c3cnc4cnc(C(F)F)cn34)n2)C1 [IV-772, (((3S,5R)-1-(2-(6-(difluoromethyl)imidazo[1,2-a]pyrazin-3-yl)pyrimidin-4-yl)-5-methylpiperidin-3-yl)imino)dimethyl-16-sulfanone] |  |  | 500 to 5000 nM | IC50 ([1]; compounds of Formula IV, 4 nM GCN2 kinase): 10 to 1000 nM
CC1(C)CN(c2cc(-c3cnc4ccc(C(F)F)nn34)ncn2)CC1CNS(C)(=O)=O (stereo not drawn) [II-213, N-((1-(6-(6-(Difluoromethyl)imidazo[1,2-b]pyridazin-3-yl)pyrimidin-4-yl)-4,4-dimethylpyrrolidin-3-yl)methyl)methanesulfonamide] | < 10 nM | 500 to 5000 nM |  | 
O=C1CCCC2CN(c3cc(-c4cnn5cccnc45)ccn3)CCN12 (stereo not drawn) [III-16, 2-(4-(pyrazolo[1,5-a]pyrimidin-3-yl)pyridin-2-yl)octahydro-6H-pyrido[1,2-a]pyrazin-6-one] |  |  |  | Ki ([1]; compounds of Formula III, 4 nM GCN2 kinase): > 1000 nM; IC50 ([2]; compounds of Formula III, U2OS cells, 10 μM borrelidin, 1 h, read-out: GCN2 Biomarker (IC50)): > 5000 nM
CS(=O)(=O)NC1CCCN(c2ccnc(-c3cnc4cnc(C(F)F)cn34)n2)CC1 (stereo not drawn) [IV-124] |  |  | > 5000 nM | Ki [1, 6]: 100 to 1000 nM
CC1CN(c2cc(-c3cnc4ccc(C(F)F)nn34)ccn2)CC(CNS(C)(=O)=O)O1 (stereo not drawn) [II-118, N-((4-(4-(6-(Difluoromethyl)imidazo[1,2-b]pyridazin-3-yl)pyridin-2-yl)-6-methylmorpholin-2-yl)methyl)methanesulfonamide] | 10 to 1000 nM | 500 to 5000 nM |  | 
CS(=O)(=O)NC[C@@H]1CN(c2ccnc(-c3cnc4ccc(C(F)F)nn34)c2)CCO1 [II-110, (S)—N-((4-(2-(6-(Difluoromethyl)imidazo[1,2-b]pyridazin-3-yl)pyridin-4-yl)morpholin-2-yl)methyl)methanesulfonamide] | < 10 nM | < 500 nM |  | 
CC1C(c2cn[nH]c2)NCCN1c1ccnc(-c2cnc3cnc(Br)cn23)n1 (single isomer, unassigned) [IV-413, 6-Bromo-3-(4-(2-methyl-3-(1H-pyrazol-4-yl)piperazin-1-yl)pyrimidin-2-yl)imidazo[1,2-a]pyrazine] |  |  | 500 to 5000 nM | Ki [1, 6]: 10 to 100 nM
NC(=O)C1CCCN(c2ccnc(-c3cnc4cnc(C(F)F)cn34)n2)C1 (stereo not drawn) [IV-42, 1-(2-(6-(Difluoromethyl)imidazo[1,2-a]pyrazin-3-yl)pyrimidin-4-yl)piperidine-3-carboxamide] |  |  | 500 to 5000 nM | Ki [1, 6]: 10 to 100 nM
FC(F)c1cn2c(-c3nccc(N4CCC(C5CCOCC5)C4)n3)cnc2cn1 (stereo not drawn) [IV-102, 6-(Difluoromethyl)-3-(4-(3-(tetrahydro-2H-pyran-4-yl)pyrrolidin-1-yl)pyrimidin-2-yl)imidazo[1,2-a]pyrazine] |  |  | > 5000 nM | Ki [1, 6]: 100 to 1000 nM
FC(F)(F)c1cn2c(-c3nccc(N4CCCC(c5cn[nH]c5)C4)n3)cnc2cn1 (stereo not drawn) [IV-59, 3-(4-(3-(1H-Pyrazol-4-yl)piperidin-1-yl)pyrimidin-2-yl)-6-(trifluoromethyl)imidazo[1,2-a]pyrazine] |  |  | < 500 nM | Ki [1, 6]: < 10 nM
FC(F)c1ccc2ncc(-c3cc(N4CCCCC4)ncn3)n2n1 [II-308, 6-(Difluoromethyl)-3-(6-(piperidin-1-yl)pyrimidin-4-yl)imidazo[1,2-b]pyridazine] | 10 to 1000 nM | > 5000 nM |  | 
CC(NS(C)(=O)=O)C1CCCN(c2cc(-c3cnc4ccc(C(F)F)nn34)ccn2)C1 (stereo not drawn) [II-133, N-(1-(1-(4-(6-(Difluoromethyl)imidazo[1,2-b]pyridazin-3-yl)pyridin-2-yl)piperidin-3-yl)ethyl)methanesulfonamide] | < 10 nM | 500 to 5000 nM |  | 
CC(=O)N1CCN(c2cc(-c3cnc4ccc(C(F)F)nn34)ccn2)CC1 [II-176, 1-(4-(4-(6-(Difluoromethyl)imidazo[1,2-b]pyridazin-3-yl)pyridin-2-yl)piperazin-1-yl)ethanone] | 10 to 1000 nM | 500 to 5000 nM |  | 
CS(=O)(=O)NCC1CN(c2cc(-c3cnc4ccc(C(F)F)nn34)ncn2)CCC1(F)F (single isomer, unassigned) [II-2, N-((1-(6-(6-(Difluoromethyl)imidazo[1,2-b]pyridazin-3-yl)pyrimidin-4-yl)-4,4-difluoropiperidin-3-yl)methyl)methanesulfonamide] | < 10 nM | 500 to 5000 nM |  | 
OCCC1CCCN(c2cc(-c3cnc4ccc(C(F)F)nn34)ncn2)C1 (stereo not drawn) [II-497, 2-(1-(6-(6-(Difluoromethyl)imidazo[1,2-b]pyridazin-3-yl)pyrimidin-4-yl)piperidin-3-yl)ethan-1-ol] | 10 to 1000 nM | 500 to 5000 nM |  | 
CN1CCN(Cc2cccc(-c3ccnc(-c4cnc5cnc(C(F)F)cn45)n3)c2)CC1 [IV-166, 6-(Difluoromethyl)-3-(4-(3-((4-methylpiperazin-1-yl)methyl)phenyl)pyrimidin-2-yl)imidazo[1,2-a]pyrazine] |  |  | > 5000 nM | Ki [1, 6]: 100 to 1000 nM
NS(=O)(=O)CCC1CN(c2cc(-c3cnc4ccc(C(F)F)nn34)ncn2)CCO1 (stereo not drawn) [II-318, 2-(4-(6-(6-(Difluoromethyl)imidazo[1,2-b]pyridazin-3-yl)pyrimidin-4-yl)morpholin-2-yl)ethane-1-sulfonamide] | 10 to 1000 nM | 500 to 5000 nM |  | 
CC1C(CO)OCCN1c1cc(-c2cnc3ccc(C(F)F)nn23)ncn1 (stereo not drawn) [II-342, (4-(6-(6-(Difluoromethyl)imidazo[1,2-b]pyridazin-3-yl)pyrimidin-4-yl)-3-methylmorpholin-2-yl)methanol] | 10 to 1000 nM | 500 to 5000 nM |  | 
NS(=O)(=O)N[C@H]1CCCN(c2ccnc(-c3cnc4cnc(C(F)F)cn34)n2)C1 [IV-179, 6-(Difluoromethyl)-3-[4-[(3S)-3-(sulfamoylamino)-1-piperidyl]pyrimidin-2-yl]imidazo[1,2-a]pyrazine] |  |  | > 5000 nM | Ki [1, 6]: 100 to 1000 nM
CS(=O)(=O)NCC1CN(c2cc(-c3cnc4ccc(C(F)F)nn34)ccn2)CCN1 (stereo not drawn) [II-90, N-((4-(4-(6-(Difluoromethyl)imidazo[1,2-b]pyridazin-3-yl)pyridin-2-yl)piperazin-2-yl)methyl)methanesulfonamide] | 10 to 1000 nM | 500 to 5000 nM |  | 
CC(F)(F)c1ccc2ncc(-c3cc(N4CCO[C@H](CNS(C)(=O)=O)C4)ncn3)n2n1 [II-322, (S)—N-((4-(6-(6-(1,1-Difluoroethyl)imidazo[1,2-b]pyridazin-3-yl)pyrimidin-4-yl)morpholin-2-yl)methyl)methanesulfonamide] | 10 to 1000 nM | > 5000 nM |  | 
